Measurements from publication PMC6383986, “Fragment-Based Covalent Ligand Screening Enables Rapid Discovery of Inhibitors for the RBR E3 Ubiquitin Ligase HOIP” (Journal of the American Chemical Society, 2019).

Columns and labels:
[1] = tested on: NF-κB activation in HEK293T cells overexpressing full length HOIP, HOIL-1L, and SHARPIN; experiment: NF-κB Luciferase reporter assay; assay type: cell-based; conditions: Homo sapiens, HEK-293T; overnight (17 h) treatment; estimated; read-out: IC50, inhibition of NF-κB activation
Description: suspensions were agitated at 4 °C overnight. The supernatants were removed and kept on ice, and the beads were washed with wash buffer (2 × 0.5 mL), PBS (2 × 0.5 mL), and 50 mM HEPES, 150 mM NaCl, pH 7.5 buffer (2 × 0.5 mL).
A polyubiquitination assay master mix was prepared by mixing E1, UbcH7, ubiquitin, MgCl2, in buffer (50 mM HEPES, 150 mM NaCl, pH 7.5). The solution (30 µL per sample) was added to the beads, and lastly ATP (0.6 µL of 100 mM stock) was added to initiate the reaction. Final concentrations were E1 (0.2 µM), UbcH7 E2 (1 µM), ubiquitin (10 µM), MgCl2 (4 mM), ATP (2 mM). The vials were incubated (Eppendorf Thermomixer) at 25 °C, 900 rpm for 1.5 h. […] All samples were analyzed by SDS PAGE and Western Blot (Figure 6C and Supplementary Figure S13) as described in sections 4.5 and 4.6. […]
Reporter assays: After incubating the plates for 17 h, Firefly and Renilla Luciferase activity was analyzed using the Dual-Luciferase® Reporter Assay System (Promega) and a BertholdTech […]
with Mikrowin 2000 software version 4.41: using its injectors to inject 100 µL LAR II and 100 µL Stop&Glo (see manufacturer’s instructions; Promega #E1960). NF-κB regulated luciferase activity was first normalized to Renilla luciferase activity and then the fold activation relative to cells transfected with empty vector calculated. […]
reader. […]

[2] = molecular target: T1, full-length recombinant IRAK4-FLAG (Homo sapiens, UniProt Q9NWZ3); experiment: LCMS labelling of recombinant IRAK4; assay type: binding; conditions: 300 μM compound, 1.5 μM IRAK4, 1 h
T1 construct: recombinant full length IRAK4-FLAG; His6 (with the rest of the FlagHisAvi vector tag) (C, cleaved yes); made in house; host or cells: Sf9 insect cells (baculovirus)
T1 sequence (Q9NWZ3 whole entry): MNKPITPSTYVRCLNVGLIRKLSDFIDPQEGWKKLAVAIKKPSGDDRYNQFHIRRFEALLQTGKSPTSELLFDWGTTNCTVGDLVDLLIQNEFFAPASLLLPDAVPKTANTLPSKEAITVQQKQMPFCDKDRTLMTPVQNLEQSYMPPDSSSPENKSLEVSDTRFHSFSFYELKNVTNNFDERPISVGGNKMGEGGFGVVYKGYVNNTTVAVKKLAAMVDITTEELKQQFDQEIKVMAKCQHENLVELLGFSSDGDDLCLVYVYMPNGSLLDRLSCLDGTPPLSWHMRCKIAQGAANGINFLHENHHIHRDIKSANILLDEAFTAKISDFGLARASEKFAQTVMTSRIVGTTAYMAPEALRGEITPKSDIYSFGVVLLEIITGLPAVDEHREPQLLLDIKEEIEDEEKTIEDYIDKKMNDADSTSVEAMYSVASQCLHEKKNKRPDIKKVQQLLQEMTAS
Description: filter BODIPY FP S-pol 595). The percentage activity was plotted against different compound concentrations and fitted using the IC50 – 4 parameter logistic using GraFit7 Software (Supplementary Figure S17). Percentage activity was calculated by dividing each value by values for no inhibition, then multiplying it by 100. Background correction was carried out by subtracting […]
Two independent experiments were carried out in duplicate.
IRAK4 (1.5 µM) was incubated with compound (11a) (300 µM) in water at ambient temperature for 1 h (final volume 20 µL), and analyzed by LCMS. […]
kinase activity. A) Serial dilutions of compound (11a) (200 µM final top concentration) and IRAK4 […]
concentration) for 1 h before adding 5TAMRA-[…]-NH2 (100 nM final […]
concentration) and ATP (50 μM final concentration). […]
independent experiments, each performed in duplicate.
B) IRAK4 (1.5 µM) was incubated with compound (11a) (300 µM) for 1 h and analyzed by LCMS. The DMSO control was incubated for 5 h. For reference GT-hIRAK4-FLAG (tetraphosphorylated; MW = 53003 Da), compound (11a) (MW = 290 Da).
(1 picture or pasted object on this page, not shown here)

labelling of IRAK4-FLAG [2]: confirmed by LCMS
Structure (SMILES): COC(=O)/C=C/CNC(=O)c1cc2c([nH]c1=O)CCCC2 [Compound 11a]
IC50 [1]: 37 ± 4 µM
